HELM strings list units from the 5' end as sugar, base in round brackets, then linkage (d deoxyribose, r ribose, m 2'-O-methyl, p phosphodiester). Strings are as the collection lists them; they lack the last nucleoside at the 3' end of the tested compound. [moe] = 2'-O-(2-methoxyethyl) (MOE); [sp] = phosphorothioate linkage; [m5C] = 5-methylcytosine

This data set deals with FUS. The experiment in a line: mouse, dose not given. The conditions noted are these: ASO.
“RNA1{[moe](A)[sp].[moe](G)p.[moe](G)p.[moe](T)p.[moe](T)p.d(A)[sp].d([m5C])[sp].d(A)[sp].d(A)[sp].d(A)[sp].d(A)[sp].d(T)[sp].d(A)[sp].d(A)[sp].d([m5C])[sp].[moe](G)p.[moe](A)p.[moe](G)[sp].[moe](G)}$$$$ (last 3' nucleoside missing)” had a 3 h FOB score of 5.75 score 0-7. Next, “RNA1{[moe](A)[sp].[moe](G)p.[moe](G)p.[moe]([m5C])p.[moe](A)p.d(A)[sp].d([m5C])[sp].d(T)[sp].d(T)[sp].d([m5C])[sp].d([m5C])[sp].d([m5C])[sp].d([m5C])[sp].d(T)[sp].d(T)[sp].[moe](A)p.[moe](A)p.[moe](A)[sp].[moe](G)}$$$$ (last 3' nucleoside missing)”: 1 score 0-7; “RNA1{[moe](A)[sp].[moe](G)p.[moe](T)p.[moe](T)p.[moe](A)p.d([m5C])[sp].d(A)[sp].d(A)[sp].d(T)[sp].d(T)[sp].d(A)[sp].d([m5C])[sp].d(A)[sp].d(T)[sp].d(A)[sp].[moe](G)p.[moe](T)p.[moe]([m5C])[sp].[moe]([m5C])}$$$$ (last 3' nucleoside missing)”: 4 score 0-7. Next, “RNA1{[moe](A)[sp].[moe](G)p.[moe](T)p.[moe]([m5C])p.[moe](A)p.d(G)[sp].d(G)[sp].d(T)[sp].d(T)[sp].d(A)[sp].d(A)[sp].d([m5C])[sp].d([m5C])[sp].d(A)[sp].d(T)[sp].[moe](T)p.[moe](A)p.[moe]([m5C])[sp].[moe]([m5C])}$$$$ (last 3' nucleoside missing)”: 1 score 0-7; “RNA1{[moe](A)[sp].[moe](T)p.[moe]([m5C])p.[moe](A)p.[moe](T)p.d([m5C])[sp].d(G)[sp].d(G)[sp].d(T)[sp].d(T)[sp].d(T)[sp].d([m5C])[sp].d([m5C])[sp].d([m5C])[sp].d(T)[sp].[moe](T)p.[moe](G)p.[moe]([m5C])[sp].[moe](A)}$$$$ (last 3' nucleoside missing)”: 5.5 score 0-7.

As for “RNA1{[moe](A)[sp].[moe]([m5C])p.[moe]([m5C])p.[moe](A)p.[moe](T)p.d([m5C])[sp].d([m5C])[sp].d(T)[sp].d(T)[sp].d(A)[sp].d(A)[sp].d(A)[sp].d(A)[sp].d([m5C])[sp].d([m5C])[sp].[moe](G)p.[moe](T)p.[moe](G)[sp].[moe](T)}$$$$ (last 3' nucleoside missing)”, the 3 h FOB score stood at 1 score 0-7. Next, “RNA1{[moe](G)[sp].[moe](A)p.[moe](G)p.[moe]([m5C])p.[moe](T)p.d(A)[sp].d(G)[sp].d(T)[sp].d(T)[sp].d(T)[sp].d([m5C])[sp].d(T)[sp].d(A)[sp].d(T)[sp].d(T)[sp].[moe](T)p.[moe](G)p.[moe]([m5C])[sp].[moe]([m5C])}$$$$ (last 3' nucleoside missing)”: 0 score 0-7; “RNA1{[moe](G)[sp].[moe](A)p.[moe]([m5C])p.[moe]([m5C])p.[moe]([m5C])p.d([m5C])[sp].d(T)[sp].d([m5C])[sp].d(T)[sp].d(T)[sp].d(A)[sp].d(T)[sp].d(T)[sp].d(A)[sp].d(A)[sp].[moe]([m5C])p.[moe]([m5C])p.[moe](T)[sp].[moe](G)}$$$$ (last 3' nucleoside missing)”: 4 score 0-7; “RNA1{[moe](G)[sp].[moe](G)p.[moe](T)p.[moe](T)p.[moe](A)p.d([m5C])[sp].d(A)[sp].d(A)[sp].d(A)[sp].d(A)[sp].d(T)[sp].d(A)[sp].d(A)[sp].d([m5C])[sp].d(G)[sp].[moe](A)p.[moe](G)p.[moe](G)[sp].[moe](G)}$$$$ (last 3' nucleoside missing)”: 3 score 0-7. Next, “RNA1{[moe](G)[sp].[moe](G)p.[moe](T)p.[moe](T)p.[moe](G)p.d(A)[sp].d([m5C])[sp].d(A)[sp].d(A)[sp].d([m5C])[sp].d([m5C])[sp].d(A)[sp].d(A)[sp].d(G)[sp].d(T)[sp].[moe](A)p.[moe](G)p.[moe](T)[sp].[moe](T)}$$$$ (last 3' nucleoside missing)”: 5 score 0-7. Next, “RNA1{[moe](G)[sp].[moe](G)p.[moe](T)p.[moe]([m5C])p.[moe](A)p.d([m5C])[sp].d(T)[sp].d(T)[sp].d(T)[sp].d(T)[sp].d(A)[sp].d(A)[sp].d(T)[sp].d(G)[sp].d(G)[sp].[moe](G)p.[moe](A)p.[moe](A)[sp].[moe]([m5C])}$$$$ (last 3' nucleoside missing)”: 4.75 score 0-7. “RNA1{[moe](G)[sp].[moe](G)p.[moe]([m5C])p.[moe](A)p.[moe](T)p.d(T)[sp].d([m5C])[sp].d(T)[sp].d(A)[sp].d([m5C])[sp].d([m5C])[sp].d([m5C])[sp].d(T)[sp].d(A)[sp].d([m5C])[sp].[moe]([m5C])p.[moe]([m5C])p.[moe]([m5C])[sp].[moe](T)}$$$$ (last 3' nucleoside missing)” had a 3 h FOB score of 1 score 0-7. The figure for “RNA1{[moe](G)[sp].[moe](T)p.[moe](A)p.[moe](G)p.[moe](G)p.d(G)[sp].d(T)[sp].d([m5C])[sp].d([m5C])[sp].d(T)[sp].d(T)[sp].d([m5C])[sp].d(A)[sp].d(A)[sp].d(A)[sp].[moe](T)p.[moe]([m5C])p.[moe](T)[sp].[moe](T)}$$$$ (last 3' nucleoside missing)” is 1 score 0-7; for “RNA1{[moe](G)[sp].[moe](T)p.[moe](A)p.[moe](T)p.[moe](A)p.d([m5C])[sp].d([m5C])[sp].d(A)[sp].d(A)[sp].d([m5C])[sp].d(T)[sp].d(T)[sp].d([m5C])[sp].d(A)[sp].d([m5C])[sp].[moe]([m5C])p.[moe](A)p.[moe](T)[sp].[moe]([m5C])}$$$$ (last 3' nucleoside missing)” it is 1 score 0-7. The figure for “RNA1{[moe](G)[sp].[moe](T)p.[moe](T)p.[moe](A)p.[moe]([m5C])p.d(A)[sp].d(A)[sp].d(T)[sp].d(T)[sp].d(A)[sp].d([m5C])[sp].d(A)[sp].d(T)[sp].d(A)[sp].d(G)[sp].[moe](T)p.[moe]([m5C])p.[moe]([m5C])[sp].[moe](G)}$$$$ (last 3' nucleoside missing)” is 4.5 score 0-7; for “RNA1{[moe](G)[sp].[moe](T)p.[moe](T)p.[moe](T)p.[moe](A)p.d(T)[sp].d([m5C])[sp].d(T)[sp].d(G)[sp].d(A)[sp].d(A)[sp].d(T)[sp].d(T)[sp].d([m5C])[sp].d(G)[sp].[moe]([m5C])p.[moe]([m5C])p.[moe](A)[sp].[moe](T)}$$$$ (last 3' nucleoside missing)” it is 5.25 score 0-7; for “RNA1{[moe](G)[sp].[moe](T)p.[moe]([m5C])p.[moe](A)p.[moe](G)p.d(G)[sp].d(T)[sp].d(T)[sp].d(A)[sp].d(A)[sp].d([m5C])[sp].d([m5C])[sp].d(A)[sp].d(T)[sp].d(T)[sp].[moe](A)p.[moe]([m5C])p.[moe]([m5C])[sp].[moe](A)}$$$$ (last 3' nucleoside missing)” it is 2.5 score 0-7. The figure for “RNA1{[moe](G)[sp].[moe]([m5C])p.[moe](A)p.[moe](A)p.[moe](A)p.d(G)[sp].d(A)[sp].d(T)[sp].d(A)[sp].d(G)[sp].d(T)[sp].d(T)[sp].d(A)[sp].d([m5C])[sp].d([m5C])[sp].[moe]([m5C])p.[moe](T)p.[moe]([m5C])[sp].[moe]([m5C])}$$$$ (last 3' nucleoside missing)” is 1 score 0-7.

On to “RNA1{[moe](G)[sp].[moe]([m5C])p.[moe](A)p.[moe](A)p.[moe](T)p.d(G)[sp].d(T)[sp].d([m5C])[sp].d(A)[sp].d([m5C])[sp].d([m5C])[sp].d(T)[sp].d(T)[sp].d(T)[sp].d([m5C])[sp].[moe](A)p.[moe](T)p.[moe](A)[sp].[moe]([m5C])}$$$$ (last 3' nucleoside missing)”, for which the 3 h FOB score came to 0 score 0-7. The figure for “RNA1{[moe](G)[sp].[moe]([m5C])p.[moe]([m5C])p.[moe](A)p.[moe]([m5C])p.d(A)[sp].d(G)[sp].d(A)[sp].d([m5C])[sp].d(T)[sp].d([m5C])[sp].d(A)[sp].d(A)[sp].d(T)[sp].d(T)[sp].[moe](G)p.[moe](T)p.[moe](A)[sp].[moe](A)}$$$$ (last 3' nucleoside missing)” is 1 score 0-7; for “RNA1{[moe](T)[sp].[moe](G)p.[moe](T)p.[moe](T)p.[moe](T)p.d(A)[sp].d(T)[sp].d([m5C])[sp].d(T)[sp].d(G)[sp].d(A)[sp].d(A)[sp].d(T)[sp].d(T)[sp].d([m5C])[sp].[moe](G)p.[moe]([m5C])p.[moe]([m5C])[sp].[moe](A)}$$$$ (last 3' nucleoside missing)” it is 3 score 0-7; for “RNA1{[moe](T)[sp].[moe](T)p.[moe](A)p.[moe]([m5C])p.[moe](A)p.d(A)[sp].d(T)[sp].d(T)[sp].d(A)[sp].d([m5C])[sp].d(A)[sp].d(T)[sp].d(A)[sp].d(G)[sp].d(T)[sp].[moe]([m5C])p.[moe]([m5C])p.[moe](G)[sp].[moe](A)}$$$$ (last 3' nucleoside missing)” it is 2 score 0-7. Next, “RNA1{[moe](T)[sp].[moe]([m5C])p.[moe](A)p.[moe](T)p.[moe]([m5C])p.d(G)[sp].d(G)[sp].d(T)[sp].d(T)[sp].d(T)[sp].d([m5C])[sp].d([m5C])[sp].d([m5C])[sp].d(T)[sp].d(T)[sp].[moe](G)p.[moe]([m5C])p.[moe](A)[sp].[moe](G)}$$$$ (last 3' nucleoside missing)”: 2.25 score 0-7. Next, “RNA1{[moe](T)[sp].[moe]([m5C])p.[moe]([m5C])p.[moe](A)p.[moe]([m5C])p.d(G)[sp].d(A)[sp].d(A)[sp].d(T)[sp].d(T)[sp].d([m5C])[sp].d(A)[sp].d(G)[sp].d(T)[sp].d(T)[sp].[moe](T)p.[moe](G)p.[moe](T)[sp].[moe](G)}$$$$ (last 3' nucleoside missing)”: 4 score 0-7. Substance “RNA1{[moe]([m5C])[sp].[moe]([m5C])[sp].[moe](T)[sp].[moe](G)[sp].[moe](G)[sp].d(T)[sp].d(T)[sp].d(A)[sp].d(T)[sp].d(T)[sp].d(T)[sp].d([m5C])[sp].d([m5C])[sp].d([m5C])[sp].d(A)[sp].[moe](T)[sp].[moe](G)[sp].[moe](A)[sp].[moe](G)}$$$$ (last 3' nucleoside missing)” had a 3 h FOB score of 6 score 0-7.

The values are drawn from the OligoGym collection.
